In PubChem BioAssay AID264 (DTP/NCI, 2004):
Where “and” joins values, the source holds several entries; their conditions need not be identical. Equal entries are not always repeated. Records with an inconclusive call do not appear.

Test system: nude mice, LX-1 lung xenograft intrarenal, tumor weight T/C
Assay: NCI In Vivo Anticancer Drug Screen. Data for tumor model Human Lung LX-1 Xenograft (intrarenal inoculation) in NU/NU Swiss (nude) mice
Conditions: endpoint: mean tumor weight change, higher = larger tumour
In short: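 Tumor-bearing mice receive test compound or vehicle; tumor size is then measured in each group. The treated value is divided by the vehicle value to give T/C.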

[1] = dose: 100.0 mg/kg/injection, schedule: Q04DX003 (sc), vehicle: saline with Tween-80
[2] = dose: 200.0 mg/kg/injection, schedule: Q04DX003 (sc), vehicle: saline with Tween-80
[3] = dose: 1200.0 mg/kg/injection, schedule: Q04DX003 (sc), vehicle: saline with Tween-80

In the case of `NCCc1ccc(O)c(O)c1`, the T/C (dose: 200.0 mg/kg/injection, schedule: Q01DX010 (sc), vehicle: saline) is reported as 113 % of control, the T/C (dose: 400.0 mg/kg/injection, schedule: Q01DX010 (sc), vehicle: saline) is reported as 92 % of control and the T/C (dose: 800.0 mg/kg/injection, schedule: Q01DX010 (sc), vehicle: saline) is reported as 52 % of control.
For `O=C1OC(=O)[C@H]2[C@@H]1[C@H]1C=C[C@@H]2OC1=O`, the T/C (dose: 300.0 mg/kg/injection, schedule: Q04DX003 (sc), vehicle: suspension in saline) was 90 % of control, the T/C (dose: 600.0 mg/kg/injection, schedule: Q04DX003 (sc), vehicle: suspension in saline) was 104 % of control and the T/C (dose: 1200.0 mg/kg/injection, schedule: Q04DX003 (sc), vehicle: suspension in saline) was 72 % of control.
With `COc1ccc(C(=O)c2no[n+]([O-])c2C(=O)c2ccc(OC)cc2)cc1` the T/C [1] was 84 % of control, the T/C [2] was 91 % of control and the T/C (dose: 400.0 mg/kg/injection, schedule: Q04DX003 (sc), vehicle: saline with Tween-80) was 99 % of control. The T/C (dose: 800.0 mg/kg/injection, schedule: Q04DX003 (sc), vehicle: saline with Tween-80) was 109 % of control.
`CCCCCC(O)C1C(=O)OC(C)C(O)/C=C/C=C/C=C/C=C\C=C(\C)C(O)CC(O)CC(O)CC(O)CC(O)CC(O)CC1O` (stereo not drawn) was tested, and the T/C (dose: 150.0 mg/kg/injection, schedule: Q04DX003 (sc), vehicle: distilled water + alcohol) was 107 % of control, the T/C (dose: 300.0 mg/kg/injection, schedule: Q04DX003 (sc), vehicle: distilled water + alcohol) was 117 % of control and the T/C (dose: 600.0 mg/kg/injection, schedule: Q04DX003 (sc), vehicle: distilled water + alcohol) was 98 % of control. The T/C (dose: 1200.0 mg/kg/injection, schedule: Q04DX003 (sc), vehicle: distilled water + alcohol) was 105 % of control.
For `O=C(C/C(=N\C(=S)Nc1cc(C(F)(F)F)ccc1Cl)NO)N1CCCC1`, the T/C (dose: 300.0 mg/kg/injection, schedule: Q04DX003 (sc), vehicle: saline with Tween-80) was 70 % of control, the T/C (dose: 600.0 mg/kg/injection, schedule: Q04DX003 (sc), vehicle: saline with Tween-80) was 120 % of control and the T/C [3] was 104 % of control. The T/C (dose: 2400.0 mg/kg/injection, schedule: Q04DX003 (sc), vehicle: saline with Tween-80) was 106 % of control.
`CCOC(=O)C(CC(C)C)NC(=O)C(Cc1ccc(N(CCCl)CCCl)cc1)NC(C)=O` (stereo not drawn) was tested, and the T/C (dose: 12.5 mg/kg/injection, schedule: Q01DX010 (sc), vehicle: saline with Tween-80) was 51 % of control, the T/C (dose: 25.0 mg/kg/injection, schedule: Q01DX010 (sc), vehicle: saline with Tween-80) was 37 % of control and the T/C (dose: 50.0 mg/kg/injection, schedule: Q01DX010 (sc), vehicle: saline with Tween-80) was 28 % of control.
`COc1cc(NCc2ccc3nc(N)nc(N)c3c2C)cc(OC)c1OC` was tested, and the T/C (dose: 1.25 mg/kg/injection, schedule: Q01DX010 (sc), vehicle: sodium bicarbonate) was 76 % of control, the T/C (dose: 2.5 mg/kg/injection, schedule: Q01DX010 (sc), vehicle: sodium bicarbonate) was 81 % of control and the T/C (dose: 5.0 mg/kg/injection, schedule: Q01DX010 (sc), vehicle: sodium bicarbonate) was 36 % of control. The T/C (dose: 75.0 mg/kg/injection, schedule: Q04DX003 (sc), vehicle: water) was 77 % of control and the T/C (dose: 150.0 mg/kg/injection, schedule: Q04DX003 (sc), vehicle: water) was 67 % of control.
With `COC(=O)Nc1nc2ccc(C3(c4ccc(F)cc4)OCCO3)cc2[nH]1` the T/C (dose: 25.0 mg/kg/injection, schedule: Q04DX003 (sc), vehicle: saline with Tween-80) was 76 % of control, the T/C (dose: 50.0 mg/kg/injection, schedule: Q04DX003 (sc), vehicle: saline with Tween-80) was 71 % of control and the T/C [1] was 89 % of control. The T/C [2] was 79 % of control and the T/C [3] was 17 % of control and 37 % of control.
In the case of `NC(C/[N+]([O-])=N/O)C(=O)O` (stereo not drawn), the T/C (dose: 50.0 mg/kg/injection, schedule: Q01DX010 (sc), vehicle: saline) is reported as 47 % of control.
For `CC[C@@]1(O)C[C@H](OC2CC(N(C)C)C(OC3CC(O)C(OC4CCC(=O)C(C)O4)C(C)O3)C(C)O2)c2c(cc3c(c2O)C(=O)c2c(O)ccc(O)c2C3=O)[C@H]1C(=O)OC` (stereo partly drawn), the T/C (dose: 3.0 mg/kg/injection, schedule: Q04DX003 (sc), vehicle: water) was 51 % of control and the T/C (dose: 6.0 mg/kg/injection, schedule: Q04DX003 (sc), vehicle: water) was 79 % of control.
In the case of `ClCCCCCCCCCCc1ccccc1`, the T/C (dose: 100.0 mg/kg/injection, schedule: Q01DX010 (sc), vehicle: Klucel (hydroxypropylcellulose) (HPC)) is reported as 260 % of control, the T/C (dose: 200.0 mg/kg/injection, schedule: Q01DX010 (sc), vehicle: Klucel (hydroxypropylcellulose) (HPC)) is reported as 94 % of control and the T/C (dose: 400.0 mg/kg/injection, schedule: Q01DX010 (sc), vehicle: Klucel (hydroxypropylcellulose) (HPC)) is reported as 71 % of control. For the same compound, the T/C (dose: 800.0 mg/kg/injection, schedule: Q01DX010 (sc), vehicle: Klucel (hydroxypropylcellulose) (HPC)) was 52 % of control.
